These results are taken from PMC8694685 (RSC Advances, 2021).

Structures are written as SMILES.

Data set [1] concerns red blood cells. Briefly: Hemolysis test. The class given is cell-based, mouse. The conditions noted are these: 0.15–5 mg mL^−1, 37 °C, 1 hour. The protocol:
The mixture was then centrifuged at 3000 rpm for 10 min. Finally, UV spectrophotometer was used to monitor the absorbance at 541 nm to investigate the hemolysis. Deionized water and 0.9% NaCl were used as the positive and negative control, respectively. The hemolysis ratio was calculated as following: [drawing 4] […]

Data set [2] in a line: In vivo pharmacokinetics study, tail vein. The settings on record: SD, rat, plasma; intravenous, 17 mg kg^−1 Cur, n = 3. The arrangement: species or system SD rats. The protocol: Pharmacokinetics were studied in SD rats. SD rats were randomly divided into three groups with each group of three rats. […] Blood samples (0.5 mL) were extracted from the rat orbital sinus into heparinized centrifuge tubes at 3, 5, 10, 15, 30, 45, 60, 120 min and then centrifuged at 8000 rpm for 5 min to obtain the upper plasma. After that, Cur in plasma samples were extracted by adding ethyl acetate and vertexing for 5 min, then centrifuged at 5000 rpm for 5 min to get supernatant. Finally, the amount of Cur in the supernatant was measured by high-performance liquid chromatography (HPLC) based on established analytical method (SI). Various pharmacokinetic parameters (AUC, MRT, t1/2, Cmax, CL, and V) were calculated according to the analysis of DAS3.0 software.

For data set [3], the system named is liver fibrosis. Briefly: In vivo pharmacodynamic experiment, CCl4 liver fibrosis model. The settings on record: CCl4 mice, tail vein twice a week for eight weeks, Cur 17 mg kg^−1. The protocol: The mice were divided into five groups with five in each group randomly. The liver fibrosis model was established by injecting carbon tetrachloride (CCl4, 40% in olive oil, 1 mL kg^−1) intraperitoneally twice a week for four weeks. The mice were only administrated the same dosage of olive oil in control group. […] After treatment through veil tail, the mice were sacrificed and blood and livers were collected for the following study. After embedding in paraffin, the liver samples were cut into 5 μm slices. Then, liver slices were stained with hematoxylin–eosin staining (H&E) and Sirius Red staining solution for 2 h. After dehydration and fixation, the slices were observed and photographed by microscope.

Data set [4] in a line: In vitro release of curcumin, membrane dialysis. The class given is physicochemical. The conditions noted are these: 30% ethanol in PBS pH7.4, 37 °C. The protocol: The membrane dialysis method was used for the drug release profile of CTPP–PEG–PCT. […] The end-sealed dialysis bag was placed in 30% ethanol in PBS (0.1 M, pH7.4) was used as dissolution medium at 37 °C, and medium was collected at determined time point. The amount of Cur released in the medium was monitored by UV-vis spectroscopy, and the experiments were repeated for three times.

In the case of `COc1cc(/C=C/C(=O)CC(=O)/C=C/c2ccc(O)c(OC)c2)ccc1O` [Cur, Curcumin], in data set [1], the hemolysis ratio result is recorded as “less than 5%”. Moreover, in data set [2], the AUC(0-inf) – broadly, the area under the concentration-time curve extrapolated to infinity – was 5610 ng·h/mL; the AUC(0-t) (usually exposure summed from dosing to a finite time, without extrapolation to infinity) was 5280 ng·h/mL; the Cmax (commonly the highest concentration seen after dosing) came out at 12900 ± 1510 ng/mL; the MRT (in general, the average time that molecules of a dose stay in the body) is 45.9 min. In data set [2], the clearance (in general, a measure of how efficiently the substance is removed, as volume per time) turned out to be 50 ± 6 mL/min/kg and the half-life (in general, the time needed for the level to fall by half in the phase considered) was determined as 48.1 ± 14.8 min. For the same compound, the “serum levels of AST and ALT vs saline group” value in data set [3] is given as “decreased significantly”. The “in vitro drug release behaviour” value in data set [4] was “released quickly”.
